Key:
Assay in all cases: relative viability (nuclei count vs DMSO), 5 days (fraction); higher = more cells survive
[1] = compound: C#Cc1cccc(Nc2ncnc3cc(OCCOC)c(OCCOC)cc23)c1 [Erlotinib] + O=C(c1cc(Cc2n[nH]c(=O)c3ccccc23)ccc1F)N1CCN(C(=O)C2CC2)CC1 [Olaparib] (partner 8 µM)
Outline: (§1)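 A single step with final 0.05% Triton X-100, 1% formaldehyde and 1 ug/ml Hoechst fixed the cells and stained nuclei 5 days after treatment. Lung cancer cell lines in 1536-well plates had been treated by pin tool the day after seeding with one drug alone or a fixed anchor-drug dose plus five library-drug doses (not always all listed) in √10 steps, and nuclei were counted on 4× images. Relative viability is the ratio of nuclei in treated wells to nuclei in vehicle wells, taken as the median of duplicate plates.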

[2] = compound: O=C(Nc1c[nH]nc1-c1nc2ccc(CN3CCOCC3)cc2[nH]1)NC1CC1 [AT9283] + Cc1nc(NC(=O)N2CCC[C@H]2C(N)=O)sc1-c1ccnc(C(C)(C)C(F)(F)F)c1 [Alpelisib] (partner 2 µM)
Outline: as §1

[3] = compound: O=C(Nc1c[nH]nc1-c1nc2ccc(CN3CCOCC3)cc2[nH]1)NC1CC1 [AT9283] + C[C@@H](Oc1cc(-c2cnn(C3CCNCC3)c2)cnc1N)c1c(Cl)ccc(F)c1Cl [Crizotinib] (partner 1 µM)
Outline: as §1

[4] = compound: O=C(Nc1c[nH]nc1-c1nc2ccc(CN3CCOCC3)cc2[nH]1)NC1CC1 [AT9283] + O=C(CCCCCCC(=O)Nc1ccccc1)NO [Vorinostat] (partner 1 µM)
Outline: as §1

[5] = compound: O=C(Nc1c[nH]nc1-c1nc2ccc(CN3CCOCC3)cc2[nH]1)NC1CC1 [AT9283] + C[C@]1(O)C[C@@H](c2nc(-c3ccc4ccc(-c5ccccc5)nc4c3)c3c(N)nccn32)C1 [Linsitinib] (partner 1 µM)
Outline: as §1

Cell Line | relative viability ([1]; first compound 0.02 µM) | relative viability ([1]; first compound 0.2 µM) | relative viability ([1]; first compound 0.6325 µM) | relative viability ([1]; first compound 2 µM) | relative viability ([2]; first compound 0.003 µM) | relative viability ([2]; first compound 0.03 µM) | relative viability ([2]; first compound 0.09487 µM) | relative viability ([2]; first compound 0.3 µM) | relative viability ([3]; first compound 0.003 µM) | relative viability ([3]; first compound 0.03 µM) | relative viability ([3]; first compound 0.09487 µM) | relative viability ([3]; first compound 0.3 µM) | relative viability ([4]; first compound 0.003 µM) | relative viability ([4]; first compound 0.03 µM) | relative viability ([4]; first compound 0.09487 µM) | relative viability ([4]; first compound 0.3 µM) | relative viability ([5]; first compound 0.003 µM) | relative viability ([5]; first compound 0.03 µM) | relative viability ([5]; first compound 0.09487 µM) | relative viability ([5]; first compound 0.3 µM)
201T | 0.846 | 0.85 | 0.788 | 0.774 | 1.02 | 1.08 | 0.525 | 0.445 | 0.996 | 1.02 | 0.478 | 0.468 | 0.844 | 0.653 | 0.471 | 0.304 | 1.02 | 1.02 | 0.8 | 0.409
A549 | 0.345 | 0.303 | 0.332 | 0.269 | 0.973 | 0.0793 | 0.0636 | 0.068 | 0.717 | 0.0751 | 0.0711 | 0.0659 | – | – | – | – | 0.539 | 0.311 | 0.0598 | 0.0613
A-427 | 0.792 | 0.757 | 0.713 | 0.716 | 1.04 | 1.01 | 0.209 | 0.176 | 0.851 | 0.482 | 0.173 | 0.178 | 0.902 | 0.471 | 0.269 | 0.323 | 0.834 | 1.03 | 0.276 | 0.205
ABC-1 | – | 1.01 | 1.03 | 0.769 | 0.957 | 0.238 | 0.269 | 0.355 | 1.03 | 0.238 | 0.182 | 0.193 | 1.05 | 0.373 | 0.359 | 0.258 | 0.722 | 0.211 | 0.182 | 0.182
BEN | 1.3 | 1.06 | 1.14 | 1.03 | 0.969 | 0.987 | 0.23 | 0.245 | 0.818 | 0.663 | 0.207 | 0.236 | 0.515 | 0.49 | 0.33 | 0.324 | 0.718 | 0.894 | 0.2 | 0.227
CAL-12T | 0.742 | 0.674 | 0.488 | 0.474 | 1.27 | 0.956 | 0.362 | 0.296 | 0.642 | 0.293 | 0.276 | 0.232 | 0.804 | 0.394 | 0.237 | 0.166 | 0.905 | 0.286 | 0.22 | 0.202
COR-L23 | 0.38 | 0.309 | 0.442 | 0.308 | 0.811 | 0.23 | 0.117 | 0.109 | 0.616 | 0.185 | 0.118 | 0.158 | 0.443 | 0.119 | 0.0932 | 0.0899 | 0.867 | 0.152 | 0.0945 | 0.135
COR-L 105 | 0.638 | 0.603 | 0.47 | 0.294 | 1.49 | 0.342 | 0.278 | 0.333 | 0.73 | 0.326 | 0.274 | 0.237 | 0.839 | 0.343 | 0.383 | 0.321 | 0.854 | 0.333 | 0.221 | 0.288
